Results as given in patent publication US4014875A, “Process of making di or tribromomethanesulfonamides” (The Dow Chemical Company, priority 1975, dated 1977).
≈ marks a conversion by molar mass, not a printed value.

Experiments:
Format in all cases: cell-based
P. aeruginosa = experiment: agar dilution test, growth inhibition of P. aeruginosa; settings: Pseudomonas aeruginosa; Pa = P. aeruginosa; 100% growth inhibition (kills); read-out: Minimum Growth Inhibitory Concentration
Procedure: (§1) In representative operations, compounds of the present invention were tested for their activity as antimicrobials using conventional agar dilution tests. The following Table presents results, expressed as concentration of toxicant in parts per million to achieve 100% growth inhibition (kills) of the indicated organisms.

S. aureus = experiment: agar dilution test, growth inhibition of S. aureus; settings: Staphylococcus aureus; Sa = S. aureus; 100% growth inhibition (kills); read-out: Minimum Growth Inhibitory Concentration
Procedure: as §1

C. albicans = experiment: agar dilution test, growth inhibition of C. albicans; settings: Candida albicans; Ca = C. albicans; 100% growth inhibition (kills); read-out: Minimum Growth Inhibitory Concentration
Procedure: as §1

T, mentagrophytes = experiment: agar dilution test, growth inhibition of T, mentagrophytes; settings: Tm = T, 100% growth inhibition (kills), read-out: Minimum Growth Inhibitory Concentration
Procedure: as §1

B. subtilis = experiment: agar dilution test, growth inhibition of B. subtilis; design: key to Minimum Growth Inhibitory Concentration: *: 50% control at 500 ppm; settings: Bs = B. subtilis, 100% growth inhibition (kills); for MIC: Bacillus subtilis, read-out: Minimum Growth Inhibitory Concentration
Procedure: as §1

A. terreus = experiment: agar dilution test, growth inhibition of A. terreus; settings: Aspergillus terreus; At = A. terreus; 100% growth inhibition (kills); read-out: Minimum Growth Inhibitory Concentration
Procedure: as §1

C. pelliculosa = experiment: agar dilution test, growth inhibition of C. pelliculosa; settings: Hansenula anomala; Cp = C. pelliculosa; 100% growth inhibition (kills); read-out: Minimum Growth Inhibitory Concentration
Procedure: as §1

P. pullulans = experiment: agar dilution test, growth inhibition of P. pullulans; settings: Pp = P. pullulans; 100% growth inhibition (kills); read-out: Minimum Growth Inhibitory Concentration
Procedure: as §1

S. typhosa = experiment: agar dilution test, growth inhibition of S. typhosa; settings: St = S. typhosa; 100% growth inhibition (kills); read-out: Minimum Growth Inhibitory Concentration
Procedure: as §1

M. phlei = experiment: agar dilution test, growth inhibition of M. phlei; settings: Mycolicibacterium phlei; Mp = M. phlei; 100% growth inhibition (kills); read-out: Minimum Growth Inhibitory Concentration
Procedure: as §1

R. nigricans = experiment: agar dilution test, growth inhibition of R. nigricans; settings: Rhizopus stolonifer; Rn = R. nigricans; 100% growth inhibition (kills); read-out: Minimum Growth Inhibitory Concentration
Procedure: as §1

Ceratocystis ips = experiment: agar dilution test, growth inhibition of Ceratocystis ips; settings: Ci = Ceratocystis ips; 100% growth inhibition (kills); read-out: Minimum Growth Inhibitory Concentration
Procedure: as §1

Cephaloascus fragans = experiment: agar dilution test, growth inhibition of Cephaloascus fragans; settings: Cf = Cephaloascus fragans; 100% growth inhibition (kills); read-out: Minimum Growth Inhibitory Concentration
Procedure: as §1

[1] = tested on: Trichoderm Sp. Madison P-42; experiment: agar dilution test, growth inhibition of Trichoderm Sp. Madison P-42; settings: Ts = Trichoderm Sp. Madison P-42; 100% growth inhibition (kills); read-out: Minimum Growth Inhibitory Concentration
Procedure: as §1

Compound | MIC (P. aeruginosa) [µg/mL] | MIC (S. aureus) [µg/mL] | MIC (C. albicans) [µg/mL] | MIC (T, mentagrophytes) [µg/mL] | Minimum Growth Inhibitory Concentration (B. subtilis) | MIC (A. terreus) [µg/mL] | MIC (C. pelliculosa) [µg/mL] | MIC (P. pullulans) [µg/mL] | MIC (S. typhosa) [µg/mL] | MIC (M. phlei) [µg/mL] | MIC (R. nigricans) [µg/mL] | MIC (Ceratocystis ips) [µg/mL] | MIC (Cephaloascus fragans) [µg/mL] | MIC [1] [µg/mL] | MIC (B. subtilis) [µg/mL]
CC1CN(S(=O)(=O)C(Br)Br)CC(C)O1 (stereo not shown) [1 (b), 2,6-Dimethyl-4-((dibromomethyl)sulfonyl)morpholine] | > 500 | > 500 | 500 (≈ 1420 µM) | 500 (≈ 1420 µM) | * | 500 (≈ 1420 µM) | 500 (≈ 1420 µM) | 500 (≈ 1420 µM) | > 500 | > 500 | 500 (≈ 1420 µM) | > 500 | 500 (≈ 1420 µM) | > 500 | –
CC1CN(S(=O)(=O)C(Br)(Br)Br)CC(C)O1 (stereo not shown) [1 (a), 2,6-Dimethyl-4-((tribromomethyl)sulfonyl)morpholine] | 100 (≈ 233 µM) | 500 (≈ 1160 µM) | 100 (≈ 233 µM) | 100 (≈ 233 µM) | – | 10 (≈ 23.3 µM) | 100 (≈ 233 µM) | 100 (≈ 233 µM) | – | 100 (≈ 233 µM) | 100 (≈ 233 µM) | 100 (≈ 233 µM) | 100 (≈ 233 µM) | 100 (≈ 233 µM) | 100 (≈ 233 µM)
O=S(=O)(N1CCOCC1)C(Br)(Br)Br [2 (b)] | 100 (≈ 249 µM) | 500 (≈ 1240 µM) | 100 (≈ 249 µM) | 100 (≈ 249 µM) | – | 100 (≈ 249 µM) | 100 (≈ 249 µM) | 100 (≈ 249 µM) | – | 100 (≈ 249 µM) | 100 (≈ 249 µM) | 100 (≈ 249 µM) | 100 (≈ 249 µM) | 100 (≈ 249 µM) | 100 (≈ 249 µM)
